Patent US9409908B2 (priority 2012, dated 2016)
Counter-ions that a name gives are not always drawn. Like-named read-outs stand apart in the source and are kept apart here.

Assays:
[1] = target: purified human plasma kallikrein (Homo sapiens (Human), UniProt P03952); experiment: biochemical; format: biochemical
[2] = target: purified human Factor XIa (Homo sapiens (Human), UniProt P03951); experiment: biochemical; format: biochemical
[3] = TFA salt, read-out: Plasma Kallikrein Ki
[4] = TFA salt, read-out: Factor XIa Ki

Chain of purified human Factor XIa (P03951 whole entry, looked up): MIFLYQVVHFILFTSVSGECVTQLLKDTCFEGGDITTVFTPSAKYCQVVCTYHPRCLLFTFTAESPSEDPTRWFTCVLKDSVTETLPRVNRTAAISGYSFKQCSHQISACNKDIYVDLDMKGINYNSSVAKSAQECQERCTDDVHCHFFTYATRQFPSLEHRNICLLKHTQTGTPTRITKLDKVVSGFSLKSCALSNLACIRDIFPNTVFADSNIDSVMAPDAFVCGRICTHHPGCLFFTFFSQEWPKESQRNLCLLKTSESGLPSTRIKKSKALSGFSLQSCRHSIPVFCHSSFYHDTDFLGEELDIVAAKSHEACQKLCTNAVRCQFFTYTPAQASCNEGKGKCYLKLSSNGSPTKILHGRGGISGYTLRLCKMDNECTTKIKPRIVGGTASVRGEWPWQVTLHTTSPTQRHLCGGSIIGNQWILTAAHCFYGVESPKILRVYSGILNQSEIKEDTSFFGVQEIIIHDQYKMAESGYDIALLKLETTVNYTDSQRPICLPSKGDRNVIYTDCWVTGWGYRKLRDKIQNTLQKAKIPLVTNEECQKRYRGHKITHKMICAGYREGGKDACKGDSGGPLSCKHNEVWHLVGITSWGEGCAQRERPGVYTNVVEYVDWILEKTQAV
Chain of purified human Factor XIa (P03951 whole entry partner, looked up): as the sequence (P03951 whole entry, looked up) above
Chain of purified human plasma kallikrein (P03952 whole entry, looked up): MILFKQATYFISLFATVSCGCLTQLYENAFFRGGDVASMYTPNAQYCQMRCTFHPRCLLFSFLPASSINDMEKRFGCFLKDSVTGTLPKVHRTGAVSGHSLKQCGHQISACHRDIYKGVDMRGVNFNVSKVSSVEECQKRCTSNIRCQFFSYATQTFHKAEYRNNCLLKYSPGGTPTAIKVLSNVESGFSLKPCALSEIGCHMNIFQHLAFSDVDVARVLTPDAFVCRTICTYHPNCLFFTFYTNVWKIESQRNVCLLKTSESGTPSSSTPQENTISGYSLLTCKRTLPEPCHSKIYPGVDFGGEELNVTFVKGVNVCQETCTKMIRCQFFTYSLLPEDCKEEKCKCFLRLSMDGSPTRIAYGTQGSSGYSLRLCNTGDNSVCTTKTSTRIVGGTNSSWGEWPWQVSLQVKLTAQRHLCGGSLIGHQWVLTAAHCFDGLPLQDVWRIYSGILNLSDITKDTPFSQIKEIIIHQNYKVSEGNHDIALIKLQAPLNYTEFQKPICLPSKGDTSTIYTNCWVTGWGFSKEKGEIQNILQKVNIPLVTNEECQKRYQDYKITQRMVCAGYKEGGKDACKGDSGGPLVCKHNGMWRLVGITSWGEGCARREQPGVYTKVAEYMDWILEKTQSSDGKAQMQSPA
Chain of purified human plasma kallikrein (P03952 whole entry partner, looked up): as the sequence (P03952 whole entry, looked up) above

| Structure (SMILES) | Ki ([1]; read-out: Plasma Kallikrein Ki) [nM] | Ki ([2]; read-out: Factor XIa Ki) [nM] | other results |
| --- | --- | --- | --- |
| COC(=O)Nc1ccc2c(c1)NC(=O)[C@H](C)CCC[C@H](N1CCC(c3c(C#N)ccc4c(N)n[nH]c34)=CC1=O)c1cc-2cc(OC)n1 [Example 8, Methyl N-[(10R,14S)-14-[4-(3-amino-6-cyano-1H-indazol-7-yl)-6-oxo-1,2,3,6-tetrahydropyridin-1-yl]-17-methoxy-10-methyl-9-oxo-8,16-diazatricyclo[13.3.1.0^2,7]nonadeca-1(18),2,4,6,15(19),16-hexaen-5-yl]carbamate, TFA salt] | 173 | > 457 |  |
| COC(=O)Nc1ccc2c(c1)NC(=O)[C@H](C)CCC[C@H](N1CCC(C3CCCC(C)C3)=CC1=O)c1cc-2ccn1 (single isomer, unassigned) [Example 226, TFA salt] |  |  | Ki [1, 3]: 165 nM; Ki [2, 4]: 24.6 nM |
| C[C@@H]1CCC[C@H](N2CCC(c3c(-c4cccnc4)ccc(Cl)c3F)=CC2=O)c2cc(ccn2)-c2ccccc2NC1=O [Example 58, (10R,14S)-14-{4-[3-Chloro-2-fluoro-6-(pyridin-3-yl)phenyl]-6-oxo-1,2,3,6-tetrahydropyridin-1-yl}-10-methyl-8,16-diazatricyclo[13.3.1.0^2,7]nonadeca-1(19),2,4,6,15,17-hexaen-9-one, TFA salt] | 179 | 15.1 |  |
| COC(=O)Nc1ccc2c(c1)NC(=O)[C@H](C)CCC[C@H](N1CCC(c3cc(C)ccc3F)=CC1=O)c1cc-2ccn1 [Example 113, Methyl N-[(10R,14S)-14-[4-(2-fluoro-5-methylphenyl)-6-oxo-1,2,3,6-tetrahydropyridin-1-yl]-10-methyl-9-oxo-8,16-diazatricyclo[13.3.1.0^2,7]nonadeca-1(18),2,4,6,15(19),16-hexaen-5-yl]carbamate] | 15.6 | 7.24 |  |
| COC(=O)Nc1ccc2c(c1)NC(=O)[C@H](C)CCC[C@H](N1CCC(C3CCCC(C)C3)=CC1=O)c1cc-2ccn1 (single isomer, unassigned) [Example 153, TFA salt] |  |  | Ki [1, 3]: 21.2 nM; Ki [2, 4]: 20 nM |
| COC(=O)Nc1ccc2c(c1)NC(=O)[C@H](C)CCC[C@H](N1CCC(c3cccc(Cl)n3)=CC1=O)c1cc-2ccn1 [Example 157, Methyl N-[(10R,14S)-14-[4-(6-chloropyridin-2-yl)-6-oxo-1,2,3,6-tetrahydropyridin-1-yl]-10-methyl-9-oxo-8,16-diazatricyclo[13.3.1.0^2,7]nonadeca-1(19),2,4,6,15,17-hexaen-5-yl]carbamate, 2 TFA salt] | 108 | 74.9 |  |
| Cc1ncn(-c2ccc(Cl)cc2C2=CC(=O)N([C@H]3CCC[C@@H](C)C(=O)Nc4ccccc4-c4ccnc3c4)CC2)n1 [Example 74, (10R,14S)-14-{4-[5-Chloro-2-(3-methyl-1H-1,2,4-triazol-1-yl)phenyl]-6-oxo-1,2,3,6-tetrahydropyridin-1-yl}-10-methyl-8,16-diazatricyclo[13.3.1.0^2,7]nonadeca-1(19),2(7),3,5,15,17-hexaen-9-one, TFA salt] | 238 | 40.1 |  |
| C[C@@H]1CCC[C@H](N2CCC(c3c(Br)ccc(Cl)c3F)=CC2=O)c2cc(ccn2)-c2c(F)cc(F)cc2NC1=O [Example 202, (10R,14S)-14-[4-(6-bromo-3-chloro-2-fluorophenyl)-6-oxo-1,2,3,6-tetrahydropyridin-1-yl]-3,5-difluoro-10-methyl-8,16-diazatricyclo[13.3.1.0^2,7]nonadeca-1(19),2(7),3,5,15,17-hexaen-9-one] | 30.1 | 8.56 |  |
| C[C@@H]1CCC[C@H](N2CCC(c3c(Br)ccc(Cl)c3F)=CC2=O)c2cc(ccn2)-c2c(ccc(F)c2F)NC1=O [Example 204, (10R,14S)-14-[4-(6-bromo-3-chloro-2-fluorophenyl)-6-oxo-1,2,3,6-tetrahydropyridin-1-yl]-3,4-difluoro-10-methyl-8,16-diazatricyclo[13.3.1.0^2,7]nonadeca-1(19),2(7),3,5,15,17-hexaen-9-one, TFA salt] | 16 | 4.46 |  |
| C[C@@H]1CCC[C@H](N2CCC(c3c(N)ccc(Cl)c3F)=CC2=O)c2cc(ccn2)-c2ccccc2NC1=O [Example 66, (10R,14S)-14-[4-(6-Amino-3-chloro-2-fluorophenyl)-6-oxo-1,2,3,6-tetrahydropyridin-1-yl]-10-methyl-8,16-diazatricyclo[13.3.1.0^2,7]nonadeca-1(19),2,4,6,15,17-hexaen-9-one, TFA salt] | 45 | 66.6 |  |
| COC(=O)Nc1ccc2c(c1)NC(=O)[C@H](C)CCC[C@H](N1CCC(c3c(F)ccc(Cl)c3F)=CC1=O)c1nc-2c(Cl)[nH]1 [Example 135, Methyl N-[(10R,14S)-17-chloro-14-[4-(3-chloro-2,6-difluorophenyl)-6-oxo-1,2,3,6-tetrahydropyridin-1-yl]-10-methyl-9-oxo-8,16,18-triazatricyclo[13.2.1.0^2,7]octadeca-1(17),2,4,6,15(18)-pentaen-5-yl]carbamate, TFA salt] | 0.56 | 0.05 |  |
| C[C@@H]1CCC[C@H](N2CCC(c3c(C(F)(F)F)ccc(Cl)c3F)=CC2=O)c2cc(ccn2)-c2cc(C(=O)O)ccc2NC1=O [Example 187, (10R,14S)-14-{4-[3-chloro-2-fluoro-6-(trifluoromethyl)phenyl]-6-oxo-1,2,3,6-tetrahydropyridin-1-yl}-10-methyl-9-oxo-8,16-diazatricyclo[13.3.1.0^2,7]nonadeca-1(19),2(7),3,5,15,17-hexaene-4-carboxylic acid] | 17.4 | 0.44 |  |
| C[C@@H]1CCC[C@H](N2CCC(c3cc(Cl)ccc3-n3cncn3)=CC2=O)c2cc(ccn2)-c2ccccc2NC1=O [Example 71, (10R,14S)-14-{4-[5-Chloro-2-(1H-1,2,4-triazol-1-yl)phenyl]-6-oxo-1,2,3,6-tetrahydropyridin-1-yl}-10-methyl-8,16-diazatricyclo[13.3.1.0^2,7]nonadeca-1(19),2(7),3,5,15,17-hexaen-9-one, TFA salt] | 60 | 1.68 |  |
| COC(=O)Nc1ccc2c(c1)NC(=O)[C@H](C)CCC[C@H](N1CCC(c3nccc(Cl)c3F)=CC1=O)c1cc-2ccn1 [Example 10, Methyl N-[(10R,14S)-14-[4-(4-chloro-3-fluoropyridin-2-yl)-6-oxo-1,2,3,6-tetrahydropyridin-1-yl]-10-methyl-9-oxo-8,16-diazatricyclo[13.3.1.0^2,7]nonadeca-1(18),2,4,6,15(19),16-hexaen-5-yl]carbamate, TFA salt] | 1 | 0.92 |  |
| C[C@@H]1CCC[C@H](n2ccc(-c3c(F)ccc(Cl)c3F)cc2=O)c2cc(ccn2)-c2ccncc2NC1=O [Example 185, (10R,14S)-14-[4-(3-chloro-2,6-difluorophenyl)-2-oxo-1,2-dihydropyridin-1-yl]-10-methyl-5,8,16-triazatricyclo[13.3.1.0^2,7]nonadeca-1(19),2(7),3,5,15,17-hexaen-9-one] |  |  | Ki ([1]; Plasma Kallikrein Ki): 47.4 nM; Ki [2]: 22.8 nM |
| Cc1ccc2c(c1)-c1ccnc(c1)[C@@H](N1CCC(c3c(F)ccc(Cl)c3F)=CC1=O)CCC[C@@H](C)C(=O)N2 [Example 141, (10R,14S)-14-[4-(3-chloro-2,6-difluorophenyl)-6-oxo-1,2,3,6-tetrahydropyridin-1-yl]-4,10-dimethyl-8,16-diazatricyclo[13.3.1.0^2,7]nonadeca-1(19),2(7),3,5,15,17-hexaen-9-one] | 123 | 98.9 |  |
| C[C@@H]1CCC[C@H](N2CCC(c3c(F)ccc(Cl)c3F)=CC2=O)c2cc(ccn2)-c2c(ccc(F)c2F)NC1=O [Example 203, (10R,14S)-14-[4-(3-chloro-2,6-difluorophenyl)-6-oxo-1,2,3,6-tetrahydropyridin-1-yl]-3,4-difluoro-10-methyl-8,16-diazatricyclo[13.3.1.0^2,7]nonadeca-1(19),2(7),3,5,15,17-hexaen-9-one, TFA salt] | 44 | 19.4 |  |
| C[C@@H]1CCC[C@H](N2CCC(c3c(F)ccc(Cl)c3F)=CC2=O)c2cc(ccn2)-c2cc(C(=O)O)c(N)cc2NC1=O [Example 198, (10R,14S)-5-amino-14-[4-(3-chloro-2,6-difluorophenyl)-6-oxo-1,2,3,6-tetrahydropyridin-1-yl]-10-methyl-9-oxo-8,16-diazatricyclo[13.3.1.0^2,7]nonadeca-1(19),2,4,6,15,17-hexaene-4-carboxylic acid, 2 TFA salt] | 1 | < 0.05 |  |
| COC(=O)Nc1ccc2c(c1)NC(=O)[C@H](C)CCC[C@H](N1CCC(c3c(C#N)ccc(Cl)c3F)=CC1=O)c1cc-2cc(=O)[nH]1 [Example 30, Methyl N-[(10R,14S)-14-[4-(3-chloro-6-cyano-2-fluorophenyl)-6-oxo-1,2,3,6-tetrahydropyridin-1-yl]-10-methyl-9,17-dioxo-8,16-diazatricyclo[13.3.1.0^2,7]nonadeca-1(18),2,4,6,15(19)-pentaen-5-yl]carbamate, TFA salt] | 3 | 0.21 |  |
| C[C@@H]1CCC[C@H](N2CCC(c3c(F)ccc(Cl)c3F)=CC2=O)c2cc(ccn2)-c2cc(Br)ccc2NC1=O [Example 137, (10R,14S)-4-bromo-14-[4-(3-chloro-2,6-difluorophenyl)-6-oxo-1,2,3,6-tetrahydropyridin-1-yl]-10-methyl-8,16-diazatricyclo[13.3.1.0^2,7]nonadeca-1(19),2(7),3,5,15,17-hexaen-9-one] | 91.3 | 69.6 |  |
| COC(=O)Nc1ccc2c(c1)NC(=O)[C@H](C)CCC[C@H](N1CCC(c3c(F)ccc(C)c3F)=CC1=O)c1cc-2ccn1 [Example 111, Methyl N-[(10R,14S)-14-[4-(2,6-difluoro-3-methylphenyl)-6-oxo-1,2,3,6-tetrahydropyridin-1-yl]-10-methyl-9-oxo-8,16-diazatricyclo[13.3.1.0^2,7]nonadeca-1(18),2,4,6,15(19),16-hexaen-5-yl]carbamate] | 3.25 | 1.42 |  |
